Read-outs that look alike come from different tables or passages of the source.
Key:
[1] = tested on: human PC-3 orthotopic xenografts
Experimental: Orthotopic xenografts were obtained by injecting 2.5×10^6 human PC-3 or DU-145 cells into the prostate of 6-week-old male nu/nu mice (n=9 animals per treatment group). All grafts were performed under anesthesia [saline/Rompun (Bayer, Leverkusen, Germany)/Imalgene (Merial, Lyons, France); 5:1:1 by volume]. The end point in these orthotopic experiments was the survival period of the tumor-bearing mice after the administration of UNBS3157, UNBS5162, or reference anticancer agents (taxol, mitoxantrone, and amonafide). However, for ethical reasons, animals were killed when 20% of body weight had been lost compared to that determined at the time of tumor grafting. All animals were weighed three times a week. […] In the case of UNBS5162 experiments in the PC-3 model, after the sacrifice of animals, tumors were removed from both drug-treated [10 mg/kg, intravenous (i.v.)] and vehicle-treated mice, fixed in buffered formalin, embedded in paraffin, and 5-μm-thick sections taken. These histologic slides were then stained with hematoxylin and eosin for blood vessel counts.

Hs683 = test: MTT colorimetric assay, Hs683 cells; format: cell-based; conditions: Homo sapiens, Hs 683, 72 h, 3 days of culturing, mean of six determinations, read-out: IC50 (μM) In Vitro Growth Inhibition
Experimental: The overall growth of human cancer cell lines was determined by means of the calorimetric MTT (3-[4,5-dimethylthiazol-2-yl]-diphenyl tetrazolium bromide; Sigma) assay, as detailed previously.

[2] = tested on: PC-3 Human Prostate Cancer Cells; test: Affymetrix whole genome microarray, gene targets; conditions: mRNA
Experimental: We performed a first experiment of evaluation of gene targets by means of Affymetrix whole genome microarray using human PC-3 cancer cells grown in vitro and treated with the compound of the invention (N-{2-[2-(dimethylamino)ethyl]-1,3-dioxo-2,3-dihydro-1H-benzo[de]isoquinolin-5-yl}urea) either one time at 1 μM or 10 μM, or 5 times a week (one time a day during five consecutive days) at 1 μM (Full genome analyses were performed at the VIB MicroArray Facility (UZ Gasthuisberg, Catholic University of Leuven, Belgium) using Affymetrix Human Genome U133 set Plus 2.0 (High Wycombe, United Kingdom).
Full genome-wide analyses were performed at the VIB MicroArray Facility (UZ Gasthuisberg, Catholic University of Leuven, Leuven, Belgium) using the Affymetrix Human Genome U133 set Plus 2.0 (High Wycombe, UK).
In addition to R, an open-source software environment for statistical computing, a set of functions called BioConductor was used for the analysis and comprehension of the genomic data. The quality controls in the Affymetrix microarray experiments were performed with the Simpleaffy package and agreed with Affymetrix guidelines. The background correction, expression quantification and normalization were performed using Robust Multichip Analysis. To select differentially expressed genes between two experimental conditions, probes for which no overlap occurred between intervals in the expression values obtained for each condition were first identified. The fold change between two experimental conditions was computed for each of these probes (without any value overlap) as the ratio between the two nearest unlog expression values observed for the two different conditions (i.e., the ratio closest to 1 between any two values from the two different conditions). Probes for which these ratios were above 2.0 or below 0.50 were then selected. The annotations of the genes finally selected in this way were retrieved from the Affymetrix Web site through the BioConductor package ghgu133plus2.h. […] This software package was then used to rank functional clusters by means of the statistical overrepresentation of individual genes in specific categories relative to all the genes in the same category on the microarray.

[3] = UNBS5162 mouse pharmacokinetics; format: in vivo
Experimental: Mouse in-life phase. Female B6D2F1 mouse (Charles River, L'Arbresle, France) were administered a single i.v. bolus injection of 20 mg/kg or a single oral dose of 80-mg/kg UNBS5162 as a solution (formulated in 0.5% lactic acid). Dosing volume was 10 ml/kg body weight. The i.v. injection was performed through the tail vein, and the oral dose was given by gavage. Blood sampling for pharmacokinetic analysis was performed by cardiac puncture after Nembutal intraperitoneal injection. The blood was collected over Li-heparin at 0.05, 0.08, 0.17, 0.25, 0.33, 0.5, 0.75, 1, 2, 4, 7, 16, and 24 hours after dose. Five animals were used per time point. Blood was kept on ice for a maximum of 2 hours before isolating plasma by centrifugation, and the resulting plasma was stored at approximately −70° C. until analysis. The samples were subsequently analyzed for UNBS5162 by liquid chromatography-mass spectrometry.
Plasma concentrations of UNBS5162 were determined using liquid chromatography-mass spectrometry. […] Briefly, solid phase extraction was performed using SPE Oasis HLB columns of 1 ml (Waters). UNBS5162 and the internal standard UNBS5181 were eluted using methanol, evaporated to dryness and reconstituted in starting solvent, a mixture (90:10 v/v) of 0.05% aqueous formic acid (mobile phase A) and 0.05% formic acid in acetonitrile (mobile phase B). Liquid chromatographic separation was effected using an Atlantis T3 column (50×2.1 mm; 3 μm), with an isocratic method with a 90:10 v/v ratio of mobile phases A/B at a flow rate of 250 μl/min for 12.5 minutes, followed by 2 minutes of 100% mobile phase B and then 4.5 minutes reconditioning with the starting solvent at a flow rate of 250 μl/min. Compound detection and quantification were performed by positive ion electrospray ionization on a QToF Ultima mass spectrometer (Micromass, Manchester, UK).

DU-145 = test: Cell cycle kinetics by flow cytometry (PI), DU-145; format: cell-based, human; conditions: 1 μM
Experimental: The cell cycle kinetics of prostate cancer cells left untreated or incubated with UNBS5162 were determined by flow cytometry analysis of propidium iodide (PI) nuclear staining, using previously detailed methodology. Each sample was evaluated in triplicate. Flow cytometry was undertaken using an Epics XL.MCL flow cytometer and the FACScan/CellQuest software system (Becton Dickinson, Miami, Fla.).

[4] = 1 μM once a day for five consecutive days
[5] = B6D2F1, mouse, plasma, iv, female mice, i.v. 20 mg/kg single
[6] = B6D2F1, mouse, plasma, po, female mice, p.o. 80 mg/kg single

**Q.** What does the source list for `CN(C)CCN1C(=O)c2cccc3cc(NC(N)=O)cc(c23)C1=O` [UNBS5162, N-{2-[2-(dimethylamino)ethyl]-1,3-dioxo-2,3-dihydro-1H-benzo[de]isoquinolin-5-yl}urea]?
**A.** angiogenesis in tumors (histopathology, blood vessel counts) ([1]; PC-3 orthotopic model, 10 mg/kg i.v.): anti-angiogenic properties in vivo; therapeutic benefit (survival) ([1]; PC-3 orthotopic model, 10 mg/kg i.v. three times a week for 6 consecutive weeks): therapeutic benefits that were similar to repeat i.v. administration (once a week for 6 consecutive weeks) of 20-mg/kg taxol; therapeutic benefit (survival) in combination ([1]; PC-3 orthotopic model, UNBS5162 10 mg/kg i.v. at the same time as taxol 20 mg/kg i.v.): significantly (P<0.01) increased the therapeutic benefit contributed by taxol alone; therapeutic benefit (survival) in combination ([1]; PC-3 orthotopic model, UNBS5162 before or after taxol): did not modify the therapeutic benefit contributed by taxol alone; toxicity of combined treatment (mouse weight, behavior) ([1]; mouse, in vivo): did not contribute higher toxicity; IC50 (Hs683): 8.5 µM; ALDH1A3 Expression Level: 5 × 1 μM [2, 4]: 3.7; ASNS Expression Level: 5 × 1 μM [2, 4]: 0.9; BCAT1 Expression Level: 5 × 1 μM [2, 4]: 0.8; CBS Expression Level: 5 × 1 μM [2, 4]: 1.0; CTH Expression Level: 5 × 1 μM [2, 4]: 0.9; H2BFS Expression Level: 5 × 1 μM [2, 4]: 0.5; HIST1H2AC Expression Level: 5 × 1 μM [2, 4]: 0.2; HIST1H2BC Expression Level: 5 × 1 μM [2, 4]: 0.7; HIST1H2BD Expression Level: 5 × 1 μM [2, 4]: 0.3; HIST1H2BG Expression Level: 5 × 1 μM [2, 4]: 0.5; HIST1H2BK Expression Level: 5 × 1 μM [2, 4]: 0.3; HIST1H3D Expression Level: 5 × 1 μM [2, 4]: 0.6; HIST1H3H Expression Level: 5 × 1 μM [2, 4]: 0.6; HIST2H2AA Expression Level: 5 × 1 μM [2, 4]: 0.5; HIST2H2BE Expression Level: 5 × 1 μM [2, 4]: 0.3; PHGDH Expression Level: 5 × 1 μM [2, 4]: 1.0; SARS Expression Level: 5 × 1 μM [2, 4]: 0.9; SAT Expression Level: 5 × 1 μM [2, 4]: 0.8; ALDH1A3 CT versus 1 μM ([2]; one time at 1 μM): 0.7; ASNS CT versus 1 μM ([2]; one time at 1 μM): 1.3; CBS CT versus 1 μM ([2]; one time at 1 μM): 1.0; CTH CT versus 1 μM ([2]; one time at 1 μM): 1.1; H2AFY CT versus 1 μM ([2]; one time at 1 μM): 1.7; HIST1H2AC CT versus 1 μM ([2]; one time at 1 μM): 1.0; HIST1H3D CT versus 1 μM ([2]; one time at 1 μM): 0.9; PHGDH CT versus 1 μM ([2]; one time at 1 μM): 1.4; SARS CT versus 1 μM ([2]; one time at 1 μM): 1.0; SAT CT versus 1 μM ([2]; one time at 1 μM): 1.1; ALDH1A3 Expression Level: 10 μM ([2]; one time at 10 μM): 2.3; ASNS Expression Level: 10 μM ([2]; one time at 10 μM): 3.6; BCAT1 Expression Level: 10 μM ([2]; one time at 10 μM): 2.1; CBS Expression Level: 10 μM ([2]; one time at 10 μM): 2.2; CTH Expression Level: 10 μM ([2]; one time at 10 μM): 2.0; H2AFY Expression Level: 10 μM ([2]; one time at 10 μM): 2.6; H2BFS Expression Level: 10 μM ([2]; one time at 10 μM): 0.5; HIST1H2AC Expression Level: 10 μM ([2]; one time at 10 μM): 0.4; HIST1H2BC Expression Level: 10 μM ([2]; one time at 10 μM): 0.4; HIST1H2BD Expression Level: 10 μM ([2]; one time at 10 μM): 0.3; HIST1H2BG Expression Level: 10 μM ([2]; one time at 10 μM): 0.4; HIST1H2BK Expression Level: 10 μM ([2]; one time at 10 μM): 0.5; HIST1H3D Expression Level: 10 μM ([2]; one time at 10 μM): 0.4; HIST1H3H Expression Level: 10 μM ([2]; one time at 10 μM): 0.3; HIST2H2AA Expression Level: 10 μM ([2]; one time at 10 μM): 0.4; HIST2H2BE Expression Level: 10 μM ([2]; one time at 10 μM): 0.5; PHGDH Expression Level: 10 μM ([2]; one time at 10 μM): 2.4; SARS Expression Level: 10 μM ([2]; one time at 10 μM): 2.6; SAT Expression Level: 10 μM ([2]; one time at 10 μM): 0.5; AUC(0-inf) [3, 5]: 5770 ng·h/mL; Cmax [3, 5]: 12000 ng/mL; Vd [3, 5]: 18.9 L/kg; half-life [3, 5]: 3.8 h; bioavailability ([3]; B6D2F1, mouse, plasma, oral, female mice, p.o. 80 mg/kg versus i.v. 20 mg/kg, read-out: F (absolute bioavailability)): 3.84%; AUC(0-inf) [3, 6]: 886 ng·h/mL; Cmax [3, 6]: 510 ng/mL; Tmax [3, 6]: 0.3 h; Cl ([3]; female mice, i.v. 20 mg/kg single): 3.47 L/h per kilogram; time for which 1-μM plasma levels are sustained ([3]; mice, post-i.v. 20 mg/kg): ≤ 2 h; time for which plasma levels of 10 μM are maintained ([3]; mice, post-i.v. 20 mg/kg): approximately 30 minutes; cell cycle kinetics (DU-145): did not significantly (P>0.05) modify
